Experimental data reported in patent publication US6906205B2, “Spiro and dispiro 1,2,4-trioxolane antimalarials” (Medicines for Malaria Venture MMV, priority 2002, dated 2005).
In brackets after ≈: the same amount, converted by molar mass.

The compounds below were run on P. falciparum K1 strain (Thailand resistant to chloroquine) (assay: semiautomated microdilution assay, [3H]-hypoxanthine incorporation, K1 strain). Conditions: K1 strain, 72 h incubation.
Format: cell-based, Plasmodium falciparum
Procedure, shortened: (§1)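 Asynchronous stock cultures → intraerythrocytic forms; semiautomated microdilution; IC50 by logit regression.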
For NC(=O)C(=O)NC[C@H]1CC[C@]2(CC1)OOC1(O2)C2CC3CC(C2)CC1C3 (some centres unmarked) [OZ268], the “IC50 (ng/ml) K1” value was 0.44 ng/mL (≈ 1.21 nM).
In the case of O=C(O)c1ccc(C[C@H]2CC[C@]3(CC2)OOC2(O3)C3CC4CC(C3)CC2C4)cc1 (some centres unmarked) [OZ214], the “IC50 (ng/ml) K1” value is reported as >10/>10 ng/ml.
In the case of c1cnn(C[C@H]2CC[C@]3(CC2)OOC2(O3)C3CC4CC(C3)CC2C4)c1 (some centres unmarked) [OZ211], the “IC50 (ng/ml) K1” value is reported as 1.0 ng/mL (≈ 2.9 nM).
CC1(C)COC(c2ccc([C@H]3CC[C@]4(CC3)OOC3(O4)C4CC5CC(C4)CC3C5)cc2)=N1 (some centres unmarked) [OZ180] was tested, and the “IC50 (ng/ml) K1” value was 3.7 ng/mL (≈ 8.46 nM).
In the case of CC(C)C1CCC2(CC1)OOC1(O2)C2CC3CC(C2)CC1C3 (centres unmarked) [OZ40], the “IC50 (ng/ml) K1” value is reported as 1.4 ng/mL (≈ 4.57 nM).

What follows are compounds tested on P. falciparum NF54 strain (sensitive to standard antimalarials) (assay: semiautomated microdilution assay, [3H]-hypoxanthine incorporation, NF54 strain). Conditions: NF54 strain, 72 h incubation.
Format: cell-based, Plasmodium falciparum
Procedure, shortened: as §1
In the case of NC(=O)C(=O)NC[C@H]1CC[C@]2(CC1)OOC1(O2)C2CC3CC(C2)CC1C3 (some centres unmarked) [OZ268], the “IC50 (ng/ml) NF54” value is reported as 0.71 ng/mL (≈ 1.95 nM).
For O=C(O)c1ccc(C[C@H]2CC[C@]3(CC2)OOC2(O3)C3CC4CC(C3)CC2C4)cc1 (some centres unmarked) [OZ214], the “IC50 (ng/ml) NF54” value was >10/>10 ng/ml.
c1cnn(C[C@H]2CC[C@]3(CC2)OOC2(O3)C3CC4CC(C3)CC2C4)c1 (some centres unmarked) [OZ211] was tested, and the “IC50 (ng/ml) NF54” value was 1.2 ng/mL (≈ 3.48 nM).
With CC1(C)COC(c2ccc([C@H]3CC[C@]4(CC3)OOC3(O4)C4CC5CC(C4)CC3C5)cc2)=N1 (some centres unmarked) [OZ180] the “IC50 (ng/ml) NF54” value was 2.8 ng/mL (≈ 6.4 nM).
For CC(C)C1CCC2(CC1)OOC1(O2)C2CC3CC(C2)CC1C3 (centres unmarked) [OZ40], the “IC50 (ng/ml) NF54” value was 2.0 ng/mL (≈ 6.53 nM).

These compounds were tested on ANKA strain of P. berghei (assay: single dose STI in vivo screen in infected mice). Conditions: percent reduction in parasitemia day 3 post-infection; single 10 mg/kg po in 3% ethanol and 7% Tween 80; mice.
Design: species or system Plasmodium berghei
Procedure, shortened: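 Groups of 3-5 Moro SPF or NMRI mice infected with the ANKA strain of P. berghei received a single dose of trioxolane on day one post-infection. The compound was given in 3% ethanol and 7% Tween 80 or in SSV (0.5% w/v CMC, 0.5% v/v benzyl alcohol, 0.4% v/v Tween 80, 0.9% w/v sodium chloride in water). Antimalarial activity was scored as percent reduction in parasitemia on day three and as survival time versus untreated controls. Survival to day 30 counted as cure.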
With NC(=O)C(=O)NC[C@H]1CC[C@]2(CC1)OOC1(O2)C2CC3CC(C2)CC1C3 (some centres unmarked) [OZ268] the “Activity (%) po” value was 99.86%.
O=C(O)c1ccc(C[C@H]2CC[C@]3(CC2)OOC2(O3)C3CC4CC(C3)CC2C4)cc1 (some centres unmarked) [OZ214] was tested, and the “Activity (%) po” value was 44%.
c1cnn(C[C@H]2CC[C@]3(CC2)OOC2(O3)C3CC4CC(C3)CC2C4)c1 (some centres unmarked) [OZ211] was tested, and the “Activity (%) po” value was 82%.
CC(C)C1CCC2(CC1)OOC1(O2)C2CC3CC(C2)CC1C3 (centres unmarked) [OZ40] was tested, and the “Activity (%) po” value was 99%.

Same assay, conditions: percent reduction in parasitemia day 3 post-infection; single 10 mg/kg po in 3% ethanol and 7% Tween 80; mice; 10 mg/kg
In the case of CC1(C)COC(c2ccc([C@H]3CC[C@]4(CC3)OOC3(O4)C4CC5CC(C4)CC3C5)cc2)=N1 (some centres unmarked) [OZ180], the “Activity (%) po” value is reported as 99.91%.

Same assay, conditions: percent reduction in parasitemia day 3 post-infection; single 10 mg/kg sc in 3% ethanol and 7% Tween 80; mice
With NC(=O)C(=O)NC[C@H]1CC[C@]2(CC1)OOC1(O2)C2CC3CC(C2)CC1C3 (some centres unmarked) [OZ268] the “Activity (%) sc” value was 99.92%.
O=C(O)c1ccc(C[C@H]2CC[C@]3(CC2)OOC2(O3)C3CC4CC(C3)CC2C4)cc1 (some centres unmarked) [OZ214] was tested, and the “Activity (%) sc” value was 65%.
With c1cnn(C[C@H]2CC[C@]3(CC2)OOC2(O3)C3CC4CC(C3)CC2C4)c1 (some centres unmarked) [OZ211] the “Activity (%) sc” value was 99.90%.
CC(C)C1CCC2(CC1)OOC1(O2)C2CC3CC(C2)CC1C3 (centres unmarked) [OZ40] was tested, and the “Activity (%) sc” value was 99.8%.

Same assay, conditions: percent reduction in parasitemia day 3 post-infection; single 10 mg/kg sc in 3% ethanol and 7% Tween 80; mice; 10 mg/kg
In the case of CC1(C)COC(c2ccc([C@H]3CC[C@]4(CC3)OOC3(O4)C4CC5CC(C4)CC3C5)cc2)=N1 (some centres unmarked) [OZ180], the “Activity (%) sc” value is reported as 65%.

Same assay, conditions: percent reduction in parasitemia day 3 post-infection; single po dose in standard suspending vehicle (SSV); mice
In the case of NC(=O)C(=O)NC[C@H]1CC[C@]2(CC1)OOC1(O2)C2CC3CC(C2)CC1C3 (some centres unmarked) [OZ268], the “Activity (%) SSVpo” value is reported as 99.47%.
With O=C(O)c1ccc(C[C@H]2CC[C@]3(CC2)OOC2(O3)C3CC4CC(C3)CC2C4)cc1 (some centres unmarked) [OZ214] the “Activity (%) SSVpo” value was 54%.
In the case of c1cnn(C[C@H]2CC[C@]3(CC2)OOC2(O3)C3CC4CC(C3)CC2C4)c1 (some centres unmarked) [OZ211], the “Activity (%) SSVpo” value is reported as 78%.
CC1(C)COC(c2ccc([C@H]3CC[C@]4(CC3)OOC3(O4)C4CC5CC(C4)CC3C5)cc2)=N1 (some centres unmarked) [OZ180] was tested, and the “Activity (%) SSVpo” value was 97%.

Same assay, conditions: single 10 mg/kg po in 3% ethanol and 7% Tween 80; untreated control 5.6 ± 0.3
In the case of NC(=O)C(=O)NC[C@H]1CC[C@]2(CC1)OOC1(O2)C2CC3CC(C2)CC1C3 (some centres unmarked) [OZ268], the “Survival (days) po” value is reported as 9.3 days.
O=C(O)c1ccc(C[C@H]2CC[C@]3(CC2)OOC2(O3)C3CC4CC(C3)CC2C4)cc1 (some centres unmarked) [OZ214] was tested, and the “Survival (days) po” value was 6.3 days.
c1cnn(C[C@H]2CC[C@]3(CC2)OOC2(O3)C3CC4CC(C3)CC2C4)c1 (some centres unmarked) [OZ211] was tested, and the “Survival (days) po” value was 8.0 days.
CC(C)C1CCC2(CC1)OOC1(O2)C2CC3CC(C2)CC1C3 (centres unmarked) [OZ40] was tested, and the “Survival (days) po” value was 7.3 days.

Same assay, conditions: single 10 mg/kg po in 3% ethanol and 7% Tween 80; untreated control 5.6 ± 0.3; 10 mg/kg
In the case of CC1(C)COC(c2ccc([C@H]3CC[C@]4(CC3)OOC3(O4)C4CC5CC(C4)CC3C5)cc2)=N1 (some centres unmarked) [OZ180], the “Survival (days) po” value is reported as 13.7 days.

Same assay, conditions: single 10 mg/kg sc in 3% ethanol and 7% Tween 80; untreated control 5.6 ± 0.3
NC(=O)C(=O)NC[C@H]1CC[C@]2(CC1)OOC1(O2)C2CC3CC(C2)CC1C3 (some centres unmarked) [OZ268] was tested, and the “Survival (days) sc” value was 9.7 days.
With O=C(O)c1ccc(C[C@H]2CC[C@]3(CC2)OOC2(O3)C3CC4CC(C3)CC2C4)cc1 (some centres unmarked) [OZ214] the “Survival (days) sc” value was 7.7 days.
For c1cnn(C[C@H]2CC[C@]3(CC2)OOC2(O3)C3CC4CC(C3)CC2C4)c1 (some centres unmarked) [OZ211], the “Survival (days) sc” value was 8.7 days.
In the case of CC(C)C1CCC2(CC1)OOC1(O2)C2CC3CC(C2)CC1C3 (centres unmarked) [OZ40], the “Survival (days) sc” value is reported as 9.0 days.

Same assay, conditions: single 10 mg/kg sc in 3% ethanol and 7% Tween 80; untreated control 5.6 ± 0.3; 10 mg/kg
In the case of CC1(C)COC(c2ccc([C@H]3CC[C@]4(CC3)OOC3(O4)C4CC5CC(C4)CC3C5)cc2)=N1 (some centres unmarked) [OZ180], the “Survival (days) sc” value is reported as 10.3 days.

Same assay, conditions: single po dose in SSV; untreated control 5.6 ± 0.3
In the case of NC(=O)C(=O)NC[C@H]1CC[C@]2(CC1)OOC1(O2)C2CC3CC(C2)CC1C3 (some centres unmarked) [OZ268], the “Survival (days) SSVpo” value is reported as 13.3 days.
In the case of O=C(O)c1ccc(C[C@H]2CC[C@]3(CC2)OOC2(O3)C3CC4CC(C3)CC2C4)cc1 (some centres unmarked) [OZ214], the “Survival (days) SSVpo” value is reported as 7.3 days.
For c1cnn(C[C@H]2CC[C@]3(CC2)OOC2(O3)C3CC4CC(C3)CC2C4)c1 (some centres unmarked) [OZ211], the “Survival (days) SSVpo” value was 7.3 days.
CC1(C)COC(c2ccc([C@H]3CC[C@]4(CC3)OOC3(O4)C4CC5CC(C4)CC3C5)cc2)=N1 (some centres unmarked) [OZ180] was tested, and the “Survival (days) SSVpo” value was 12.7 days.
